Like-named read-outs stand apart in the source and are kept apart here.
Key:
Format in all cases: cell-based, human
HOP62 cells = test: Cell survival assay (SRB); conditions: for IC50: HOP62 (lung), read-out: Cytoselectivities (nM) HOP62
Method: (§1) Cell Lines and Culture Medium. All cell lines used in this study have been described previously (Parsons et al., 1986; Todaro et al., 1980; Glenn et al., 2004). All cell lines were cultured in 10% heat-inactivated foetal calf serum (CSL, Australia) in RPMI 1640 medium supplemented with 100 U/mL penicillin, 100 μg/mL streptomycin, and 3 mM HEPES at 5% CO2, 99% humidity at 37° C. Primary human fibroblasts were obtained from neonatal foreskins and cultured in the above medium. Routine mycoplasma tests were performed using Hoechst stain^i and were always negative.
(§2) Cell Survival Assay. Cells were plated into 96-well microtitre plates at 5×10^3 cells/well, and allowed to adhere overnight. Test compounds were added to culture medium at the indicated concentrations, and plates incubated in the above conditions for 24 hours. Following this incubation period, compounds and media were removed, and replaced with fresh culture medium. Cells were then grown for a further 72 hours before assay using sulforhodamine B (SRB; Sigma, St. Louis, Mo.) as previously described. Briefly, the culture medium was removed from the 96-well microtitre plates and the plates washed twice with phosphate buffered saline (PBS), before the cells were fixed with methylated spirits for 15 minutes. The plates were then rinsed with tap water and the fixed cells stained with 50 μL/well of SRB solution (0.4% sulforhodamine B (w/v) in 1% (v/v) acetic acid) over a period of 1 hour. The SRB solution was then removed from the wells and the plates rapidly washed two times with 1% (v/v) acetic acid. Protein bound dye was then solubilised with the addition of 100 μL of 10 mM unbuffered Tris, and incubated for 15 min at 25° C. Plates were then read at 564 nm on a VERSA max tunable microplate reader (Molecular Devices, Sunnyvale, Calif.).

HT29 cells = test: Cell survival assay (SRB); conditions: for IC50: HT29 (colon), read-out: Cytoselectivities (nM) HT29
Method: as §1, §2

T-47D cells = test: Cell survival assay (SRB); conditions: for IC50: read-out: Cytoselectivities (nM) T-47D
Method: as §1, §2

A549 cells = test: Cell survival assay (SRB); conditions: for IC50: A549 (lung), read-out: Cytoselectivities (nM) A549
Method: as §1, §2

SK-MEL-5 cells = test: Cell survival assay (SRB); conditions: for IC50: SK-MEL-5, read-out: Cytoselectivities (nM) SK-MEL-5
Method: as §1, §2

PC-3 cells = test: Cell survival assay (SRB); conditions: for IC50: PC-3, read-out: Cytoselectivities (nM) PC-3
Method: as §1, §2

H520 cells = test: Cell survival assay (SRB); conditions: for IC50: read-out: Cytoselectivities (nM) H520
Method: as §1, §2

MM96L melanoma cells = test: Cell survival assay (clonogenic survival, SRB); conditions: for IC50: MM96L
How it was run: (§3)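 Cells (5×10^3/well, RPMI 1640 with 10% FCS) treated 24 h with compound at 0.01-10 μg/mL, then washed and grown 72 h drug-free at 37 °C, 5% CO2. Survival read by SRB staining after methylated-spirit fixation, absorbance 564 nm.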

[1] = system: MCF-7 breast cancer cells; test: Cell survival assay (SRB); conditions: for IC50: MCF-7 (breast), read-out: Cytoselectivities (nM) MCF-7
Method: as §1, §2
(§4) For comparison their results are also shown for MM96L and NFF cell lines.

JAM ovarian cancer cells = test: Cell survival assay (SRB); conditions: for IC50: read-out: Cytoselectivities (nM) JAM
Method: as §1, §2, §4

SkMel28 melanoma cells = test: Cell survival assay (SRB); conditions: for IC50: SK-MEL-28 (melanoma), read-out: Cytoselectivities (nM) SK-MEL-28
Method: as §1, §2, §4

[2] = system: CI-80-13S ovarian cancer cells; test: Cell survival assay (SRB); conditions: for IC50: read-out: Cytoselectivities (nM) CI80-13S
Method: as §1, §2, §4

[3] = system: DU145 prostate cancer cells; test: Cell survival assay (SRB); conditions: for IC50: DU145 (prostate), read-out: Cytoselectivities (nM) DU145
Method: as §1, §2, §4

Col208 cells = test: Cell survival assay (SRB)
Method: as §1, §2

[4] = system: NFF, neonatal foreskin fibroblasts; test: Cell survival assay (clonogenic survival, SRB), normal cells; conditions: Homo sapiens, Fibroblast, NFF normal fibroblasts; 24 h with compound, further 72 h growth, SRB; read-out: IC50 (uM) NFF
How it was run: as §3

[5] = Table 12, read-out: Cytoselectivities (nM) MM96L
[6] = Table 13, S enantiomer, IC50(NFF)/IC50(cancer cell line)

`O=C(CCCCC[C@@H](NC(=O)c1cc2ccccc2[nH]1)C(=O)Nc1cccc2cccnc12)NO` [132 R] showed an IC50 (HOP62 cells) of 63 nM, an IC50 (HT29 cells) of 238 nM and an IC50 (T-47D cells; T-47D) of 42 nM. For the same compound, the IC50 (A549 cells) was 121 nM, the IC50 (SK-MEL-5 cells) was 23 nM and the IC50 (PC-3 cells) was 148 nM. The IC50 (H520 cells; H520) was 180 nM, the IC50 (MM96L melanoma cells; [5]) was 18 nM and the IC50 [1] was 42 nM. For the same compound, the IC50 (JAM ovarian cancer cells; JAM) was 211 nM, the IC50 (SkMel28 melanoma cells) was 43 nM and the IC50 ([2]; CI80-13S) was 27 nM. For the same compound, the IC50 [3] was 33 nM.
`O=C(/C=C/c1ccccc1)N[C@H](CCCCCC(=O)NO)C(=O)Nc1cccc2cccnc12` [146 R] showed an IC50 (HOP62 cells) of 133 nM, an IC50 (HT29 cells) of 272 nM and an IC50 (T-47D cells; T-47D) of 99 nM. It also gave an IC50 (A549 cells) of 196 nM, an IC50 (SK-MEL-5 cells) of 66 nM and an IC50 (PC-3 cells) of 543 nM. It also gave an IC50 (H520 cells; H520) of 152 nM, an IC50 (MM96L melanoma cells; [5]) of 45 nM and an IC50 [1] of 51 nM. The IC50 (JAM ovarian cancer cells; JAM) was 163 nM, the IC50 (SkMel28 melanoma cells) was 87 nM and the IC50 ([2]; CI80-13S) was 91 nM. It also gave an IC50 [3] of 63 nM.
Work on `O=C(CCCCC[C@@H](NC(=O)c1ccc(Br)cc1)C(=O)Nc1ccc(-c2ccccc2)cc1)NO` [161 R] yielded an IC50 (HOP62 cells) of 18600 nM, an IC50 (HT29 cells) of 18600 nM and an IC50 (T-47D cells; T-47D) of 18600 nM. The IC50 (A549 cells) was 18600 nM, the IC50 (SK-MEL-5 cells) was 18600 nM and the IC50 (PC-3 cells) was 18600 nM. For the same compound, the IC50 (H520 cells; H520) was 18600 nM, the IC50 (MM96L melanoma cells; [5]) was 18600 nM and the IC50 [1] was 13000 nM. It also gave an IC50 (JAM ovarian cancer cells; JAM) of 18600 nM, an IC50 (SkMel28 melanoma cells) of 18600 nM and an IC50 ([2]; CI80-13S) of 18600 nM. The IC50 [3] was 18600 nM.
`O=C(CCCCC[C@H](NC(=O)OCc1ccccc1)C(=O)Nc1cccc2cccnc12)NO` [Example 148] was tested, and the IC50 (HOP62 cells; Homo sapiens, HOP-62) was 226 nM, the “Selectivity Index HOP62” value (HOP62 cells; [6]) was 2 and the IC50 (HT29 cells; Homo sapiens, HT-29) was 334 nM. The “Selectivity Index HT29” value (HT29 cells; [6]) was 1.4, the IC50 (T-47D cells; Homo sapiens, T47D) was 93 nM and the “Selectivity Index T-47D” value (T-47D cells; [6]) was 5. For the same compound, the IC50 (Col208 cells; Homo sapiens, Col208 (colon), read-out: Cytoselectivities (nM) Col208) was 122 nM, the “Selectivity Index Col208” value (Col208 cells; [6]) was 4 and the IC50 (A549 cells; Homo sapiens) was 248 nM. For the same compound, the “Selectivity Index A549” value (A549 cells; [6]) was 2, the IC50 (SK-MEL-5 cells; Homo sapiens) was 70 nM and the “Selectivity Index SK-MEL-5” value (SK-MEL-5 cells; [6]) was 6. The IC50 (PC-3 cells; Homo sapiens) was 528 nM, the “Selectivity Index PC-3” value (PC-3 cells; [6]) was 0.9 and the IC50 (H520 cells; Homo sapiens, NCI-H520) was 118 nM. For the same compound, the “Selectivity Index H520” value (H520 cells; [6]) was 4, the IC50 (MM96L melanoma cells; Homo sapiens, MM96L melanoma, 24 h with compound, further 72 h growth, SRB, read-out: IC50 (uM) MM96L) was 43 nM and the IC50 (MM96L melanoma cells; Homo sapiens, Table 12, read-out: Cytoselectivities (nM) MM96L) was 108 nM. The IC50 (MM96L melanoma cells; Homo sapiens, most preferred compounds, exemplary examples, read-out: potency of IC50 against the MM96 melanoma cells) was ≤ 500 nM, the “SI (Selectivity Index = IC50 (NFF)/IC50 (MM96L))” value (MM96L melanoma cells; NFF vs MM96L) was 10.5 and the “Selectivity Index MM96L” value (MM96L melanoma cells; [6]) was 4. For the same compound, the IC50 ([1]; Homo sapiens, MCF7) was 122 nM, the “Selectivity Index MCF-7” value [1, 6] was 4 and the IC50 (JAM ovarian cancer cells; Homo sapiens) was 194 nM. The “Selectivity Index JAM” value (JAM ovarian cancer cells; [6]) was 2, the IC50 (SkMel28 melanoma cells; Homo sapiens) was 146 nM and the “Selectivity Index SK-MEL-28” value (SkMel28 melanoma cells; [6]) was 3. The IC50 ([2]; Homo sapiens) was 124 nM, the “Selectivity Index CI80-13S” value [2, 6] was 4 and the IC50 ([3]; Homo sapiens, DU-145) was 131 nM. For the same compound, the “Selectivity Index DU145” value [3, 6] was 3 and the IC50 [4] was 0.452 µM.

Source: patent US20080004290A1, “Anti-Cancer Agents” (THE UNIVERSITY OF QUEENSLAND, priority 2003, published 2008)
